# Results published in patent US12606541B2, “PPARg modulators and methods of use” (Eisai R&D Management Co., Ltd., priority 2020, dated 2026).
# Target: T1, His6-TEV-PPARγ-(234-505) (Homo sapiens, UniProt P37231)
# T1 construct: The His6-TEV-PPARγ-(234-505) protein for assay was expressed and purified; TEV cleavage site (N); made in house
# T1 sequence (P37231 234-505): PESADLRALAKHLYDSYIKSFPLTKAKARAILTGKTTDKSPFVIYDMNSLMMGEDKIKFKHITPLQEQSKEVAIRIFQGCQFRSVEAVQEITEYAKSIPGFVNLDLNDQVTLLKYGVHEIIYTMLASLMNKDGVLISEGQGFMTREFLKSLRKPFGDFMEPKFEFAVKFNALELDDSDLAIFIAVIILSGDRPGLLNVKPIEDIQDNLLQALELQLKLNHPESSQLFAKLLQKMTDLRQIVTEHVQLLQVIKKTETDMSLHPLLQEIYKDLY
# Assay: TR-FRET Assay to Measure Co-R Peptide Recruitment to PPARγ
# Type: biochemical
# Details: Co-R peptide recruitment to PPARγ; read-out: TR-FRET AC50
# Method in brief: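 His-tagged PPARγ (or controls) was preincubated with compound for 20 minutes at room temperature, then 5 nM anti-His terbium antibody and 200 nM FITC-labeled SMRT-ID2 corepressor peptide (final) were added for a further hour. TR-FRET signal was normalized to percent response using 500 nM T0070907 and DMSO controls.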
row,AC50,SMILES
1,> 1000 nM,CN1CCC(NC(=O)C2CCN(C(=O)c3cc(-c4ccncc4)[nH]n3)CC2)CC1 [N-(1-methylpiperidin-4-yl)-1-[5-(pyridin-4-yl)-1H-pyrazole-3-carbonyl]piperidine-4-carboxamide]
2,> 1000 nM,COc1cc(-c2cc(C(=O)N3CCC(C(=O)NC4CCN(C(C)(C)C)CC4)CC3)n[nH]2)c(Cl)cn1 [N-(1-tert-butylpiperidin-4-yl)-1-[5-(5-chloro-2-methoxypyridin-4-yl)-1H-pyrazole-3-carbonyl]piperidine-4-carboxamide]
3,> 1000 nM,"CC(C)(C)CNC(=O)C1CCN(C(=O)c2cc(-c3ccncc3)[nH]n2)CC1 [N-(2,2-dimethylpropyl)-1-[5-(pyridin-4-yl)-1H-pyrazole-3-carbonyl]piperidine-4-carboxamide]"
4,> 1000 nM,"O=C(Nc1ccc2c(c1)OCCO2)C1CCCN(C(=O)c2cc(-c3ccncc3)[nH]n2)C1 (stereo not shown) [N-(2,3-dihydro-1,4-benzodioxin-6-yl)-1-[5-(pyridin-4-yl)-1H-pyrazole-3-carbonyl]piperidine-3-carboxamide]"
5,> 1000 nM,"Cc1cccc(C)c1NC(=O)C1CCN(C(=O)c2cc(-c3ccncc3)[nH]n2)CC1 [N-(2,6-dimethylphenyl)-1-[5-(pyridin-4-yl)-1H-pyrazole-3-carbonyl]piperidine-4-carboxamide]"
6,> 1000 nM,CCOCCNC(=O)C1CCN(C(=O)c2cc(-c3ccncc3)[nH]n2)CC1 [N-(2-ethoxyethyl)-1-[5-(pyridin-4-yl)-1H-pyrazole-3-carbonyl]piperidine-4-carboxamide]
7,> 1000 nM,CC1CCCCC1NC(=O)C1CCN(C(=O)c2cc(-c3ccncc3)[nH]n2)CC1 (stereo not shown) [N-(2-methylcyclohexyl)-1-[5-(pyridin-4-yl)-1H-pyrazole-3-carbonyl]piperidine-4-carboxamide]
8,> 1000 nM,CC(CNC(=O)C1CCCN(C(=O)c2cc(-c3ccncc3)[nH]n2)C1)c1ccccc1 (stereo not shown) [N-(2-phenylpropyl)-1-[5-(pyridin-4-yl)-1H-pyrazole-3-carbonyl]piperidine-3-carboxamide]
9,> 1000 nM,Cc1ccc(NC(=O)C2CCN(C(=O)c3cc(-c4ccncc4)[nH]n3)CC2)cc1Cl [N-(3-chloro-4-methylphenyl)-1-[5-(pyridin-4-yl)-1H-pyrazole-3-carbonyl]piperidine-4-carboxamide]
10,> 1000 nM,O=C(Nc1cccc(Cl)c1)C1CCN(C(=O)c2cc(-c3ccncc3)[nH]n2)CC1 [N-(3-chlorophenyl)-1-[5-(pyridin-4-yl)-1H-pyrazole-3-carbonyl]piperidine-4-carboxamide]
11,> 1000 nM,CC(C)CCNC(=O)C1CCN(C(=O)c2cc(-c3ccncc3)[nH]n2)CC1 [N-(3-methylbutyl)-1-[5-(pyridin-4-yl)-1H-pyrazole-3-carbonyl]piperidine-4-carboxamide]
12,> 1000 nM,"O=C(NC1CCC(F)(F)CC1)C1CCN(C(=O)c2cc(-c3ccncc3)[nH]n2)CC1 [N-(4,4-difluorocyclohexyl)-1-[5-(pyridin-4-yl)-1H-pyrazole-3-carbonyl]piperidine-4-carboxamide]"
13,> 1000 nM,O=C(Nc1ccc(Cl)cc1)C1CCCN(C(=O)c2cc(-c3ccncc3)[nH]n2)C1 (stereo not shown) [N-(4-chlorophenyl)-1-[5-(pyridin-4-yl)-1H-pyrazole-3-carbonyl]piperidine-3-carboxamide]
14,> 1000 nM,O=C(Nc1ccc(Cl)cc1)C1CCN(C(=O)c2cc(-c3ccncc3)[nH]n2)CC1 [N-(4-chlorophenyl)-1-[5-(pyridin-4-yl)-1H-pyrazole-3-carbonyl]piperidine-4-carboxamide]
15,> 1000 nM,COc1ccc(NC(=O)C2CCN(C(=O)c3cc(-c4ccncc4)[nH]n3)CC2)c(C)c1 [N-(4-methoxy-2-methylphenyl)-1-[5-(pyridin-4-yl)-1H-pyrazole-3-carbonyl]piperidine-4-carboxamide]
16,> 1000 nM,COC1CCC(NC(=O)C2CCN(C(=O)c3cc(-c4ccncc4)[nH]n3)CC2)CC1 (stereo not shown) [N-(4-methoxycyclohexyl)-1-[5-(pyridin-4-yl)-1H-pyrazole-3-carbonyl]piperidine-4-carboxamide]
17,> 1000 nM,CC1CCC(NC(=O)C2CCN(C(=O)c3cc(-c4ccncn4)[nH]n3)CC2)CC1 (stereo not shown) [N-(4-methylcyclohexyl)-1-[5-(pyrimidin-4-yl)-1H-pyrazole-3-carbonyl]piperidine-4-carboxamide]
18,> 1000 nM,CC1CCC(NC(=O)C2CCN(C(=O)c3cc(-c4ccnc(N5CCCC5)c4)[nH]n3)CC2)CC1 (stereo not shown) [N-(4-methylcyclohexyl)-1-{5-[2-(pyrrolidin-1-yl)pyridin-4-yl]-1H-pyrazole-3-carbonyl}piperidine-4-carboxamide]
19,> 1000 nM,CC1(NC(=O)C2CCN(C(=O)c3cc(-c4ccncc4)[nH]n3)CC2)CCOCC1 [N-(4-methyloxan-4-yl)-1-[5-(pyridin-4-yl)-1H-pyrazole-3-carbonyl]piperidine-4-carboxamide]
20,> 1000 nM,Cc1ccc(NC(=O)C2CCN(C(=O)c3cc(-c4ccncc4)[nH]n3)CC2)cc1 [N-(4-methylphenyl)-1-[5-(pyridin-4-yl)-1H-pyrazole-3-carbonyl]piperidine-4-carboxamide]
21,> 1000 nM,O=C(NC1CCC(c2ccccc2)CC1)C1CCN(C(=O)c2cc(-c3ccncc3)[nH]n2)CC1 (stereo not shown) [N-(4-phenylcyclohexyl)-1-[5-(pyridin-4-yl)-1H-pyrazole-3-carbonyl]piperidine-4-carboxamide]

# Further lines, the compound ahead of its results:
row,SMILES,AC50
1,COc1cc(-c2cc(C(=O)N3CCC(C(=O)NC(C)C4CCC4)CC3)n[nH]2)c(F)cn1 (stereo not shown) [N-(1-cyclobutylethyl)-1-[5-(5-fluoro-2-methoxypyridin-4-yl)-1H-pyrazole-3-carbonyl]piperidine-4-carboxamide],> 1000 nM
2,CS(=O)(=O)N1CCC(NC(=O)C2CCN(C(=O)c3cc(-c4ccncc4)[nH]n3)CC2)CC1 [N-(1-methanesulfonylpiperidin-4-yl)-1-[5-(pyridin-4-yl)-1H-pyrazole-3-carbonyl]piperidine-4-carboxamide],> 1000 nM
3,O=C(NC1CCCN(c2ccccc2)C1)C1CCN(C(=O)c2cc(-c3ccncc3)[nH]n2)CC1 (stereo not shown) [N-(1-phenylpiperidin-3-yl)-1-[5-(pyridin-4-yl)-1H-pyrazole-3-carbonyl]piperidine-4-carboxamide],> 1000 nM
4,CN(CCC#N)C(=O)C1CCN(C(=O)c2cc(-c3ccncc3)[nH]n2)CC1 [N-(2-cyanoethyl)-N-methyl-1-[5-(pyridin-4-yl)-1H-pyrazole-3-carbonyl]piperidine-4-carboxamide],> 1000 nM
5,O=C(NCCc1ccccc1)C1CCN(C(=O)c2cc(-c3ccncc3)[nH]n2)CC1 [N-(2-phenylethyl)-1-[5-(pyridin-4-yl)-1H-pyrazole-3-carbonyl]piperidine-4-carboxamide],> 1000 nM
6,CC1CCCC(NC(=O)C2CCN(C(=O)c3cc(-c4ccncc4)[nH]n3)CC2)C1 (stereo not shown) [N-(3-methylcyclohexyl)-1-[5-(pyridin-4-yl)-1H-pyrazole-3-carbonyl]piperidine-4-carboxamide],> 1000 nM
7,Cc1cnccc1NC(=O)C1CCN(C(=O)c2cc(-c3ccncc3)[nH]n2)CC1 [N-(3-methylpyridin-4-yl)-1-[5-(pyridin-4-yl)-1H-pyrazole-3-carbonyl]piperidine-4-carboxamide],> 1000 nM
8,"COc1cc(-c2cc(C(=O)N3CCC(C(=O)NC4CCC(F)(F)CC4)CC3)n[nH]2)ccn1 [N-(4,4-difluorocyclohexyl)-1-[5-(2-methoxypyridin-4-yl)-1H-pyrazole-3-carbonyl]piperidine-4-carboxamide]",> 1000 nM
9,"COc1cc(-c2cc(C(=O)N3CCC(C(=O)NC4CCC(C)(C)CC4)CC3)n[nH]2)ccn1 [N-(4,4-dimethylcyclohexyl)-1-[5-(2-methoxypyridin-4-yl)-1H-pyrazole-3-carbonyl]piperidine-4-carboxamide]",> 1000 nM
10,COc1ccc(NC(=O)C2CCN(C(=O)c3cc(-c4ccncc4)[nH]n3)CC2)cc1 [N-(4-methoxyphenyl)-1-[5-(pyridin-4-yl)-1H-pyrazole-3-carbonyl]piperidine-4-carboxamide],> 1000 nM
11,COc1ccnc(NC(=O)C2CCN(C(=O)c3cc(-c4ccncc4)[nH]n3)CC2)c1 [N-(4-methoxypyridin-2-yl)-1-[5-(pyridin-4-yl)-1H-pyrazole-3-carbonyl]piperidine-4-carboxamide],> 1000 nM
12,CC1CCC(NC(=O)C2CCN(C(=O)c3cc(-c4ccncc4)[nH]n3)CC2)CC1 (stereo not shown) [N-(4-methylcyclohexyl)-1-[5-(pyridin-4-yl)-1H-pyrazole-3-carbonyl]piperidine-4-carboxamide],> 1000 nM
13,CC1CCC(NC(=O)C2CCN(C(=O)c3cc(-c4ccnc(C(F)(F)F)c4)[nH]n3)CC2)CC1 (stereo not shown) [N-(4-methylcyclohexyl)-1-{5-[2-(trifluoromethyl)pyridin-4-yl]-1H-pyrazole-3-carbonyl}piperidine-4-carboxamide],> 1000 nM
14,O=C(NC1CCC(c2ccccc2)CC1)C1CCN(C(=O)c2cc(-c3cccnc3)[nH]n2)CC1 (stereo not shown) [N-(4-phenylcyclohexyl)-1-[5-(pyridin-3-yl)-1H-pyrazole-3-carbonyl]piperidine-4-carboxamide],> 1000 nM
15,O=C(Nc1ccc(F)cn1)C1CCN(C(=O)c2cc(-c3ccncc3)[nH]n2)CC1 [N-(5-fluoropyridin-2-yl)-1-[5-(pyridin-4-yl)-1H-pyrazole-3-carbonyl]piperidine-4-carboxamide],> 1000 nM
16,Cc1ccc(NC(=O)C2CCN(C(=O)c3cc(-c4ccncc4)[nH]n3)CC2)nn1 [N-(6-methylpyridazin-3-yl)-1-[5-(pyridin-4-yl)-1H-pyrazole-3-carbonyl]piperidine-4-carboxamide],> 1000 nM
